Structures can show the parent of a compound that is named as a salt.

In this assay the target is T1, human GlyT1c transporter (Homo sapiens, UniProt P48067).
T1 construct: expressed in transfected cells; host or cells: recombinant CHO cells (membranes); the uptake assay names the line hGlyT1c_5_CHO
T1 sequence (P48067 1-706): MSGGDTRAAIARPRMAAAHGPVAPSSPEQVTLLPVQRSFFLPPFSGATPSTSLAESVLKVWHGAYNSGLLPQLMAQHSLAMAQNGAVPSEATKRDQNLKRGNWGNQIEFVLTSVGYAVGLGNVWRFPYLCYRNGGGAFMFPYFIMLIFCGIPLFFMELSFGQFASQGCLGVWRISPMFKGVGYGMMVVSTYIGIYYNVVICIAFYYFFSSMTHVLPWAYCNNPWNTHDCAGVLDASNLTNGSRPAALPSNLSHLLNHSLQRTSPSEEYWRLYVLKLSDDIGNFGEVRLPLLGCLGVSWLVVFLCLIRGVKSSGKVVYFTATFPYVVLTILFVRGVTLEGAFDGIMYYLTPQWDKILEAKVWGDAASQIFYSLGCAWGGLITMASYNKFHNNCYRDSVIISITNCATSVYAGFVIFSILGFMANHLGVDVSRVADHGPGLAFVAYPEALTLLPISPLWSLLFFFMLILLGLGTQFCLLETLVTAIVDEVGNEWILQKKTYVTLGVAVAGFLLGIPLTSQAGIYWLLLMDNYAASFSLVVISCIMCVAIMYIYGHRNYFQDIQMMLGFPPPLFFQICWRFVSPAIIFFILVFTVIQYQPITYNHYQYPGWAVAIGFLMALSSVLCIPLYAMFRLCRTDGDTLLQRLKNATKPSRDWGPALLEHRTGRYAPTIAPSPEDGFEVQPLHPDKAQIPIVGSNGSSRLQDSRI
The experiment in a line: Radioligand binding assay using recombinant CHO cell membranes expressing human GlyT1. The conditions noted are these: read-out: radioligand binding Kiapp. On the procedure: 2. Radioligand Binding Assays Using Recombinant CHO Cell Membranes Expressing Human GlyT1:
Radioligand binding to human GlyT1c transporter-expressing membranes was determined as described in Mezler et al., Molecular Pharmacology 74:1705-1715, 2008.
Regarding `CN1CCCc2ccc(OCCNS(=O)(=O)c3cnn(C)c3)cc2C1Cc1ccccc1` (stereo not shown) [Example 7, 1-Methyl-1H-pyrazole-4-sulfonic acid [2-(1-benzyl-2-methyl-2,3,4,5-tetrahydro-1H-benzo[c]azepin-8-yloxy)-ethyl]amide], the Ki was not above 10 nM.
For the molecule `O=S(=O)(CC1CC1)NCc1ccc2c(c1)C(Cc1ccc(Cl)cc1)NCCC2` (stereo not shown) [Example 15, N-[1-(4-Chloro-benzyl)-2,3,4,5-tetrahydro-1H-benzo[c]azepin-8-ylmethyl]-C-cyclopropyl-methanesulfonamide], the Ki is not above 10000 nM.
As for `Cn1cnc(S(=O)(=O)NCc2cc3c(cc2F)CCCNC3Cc2ccccc2)c1` (stereo not shown) [Example 41, 1-Methyl-1H-imidazole-4-sulfonic acid (1-benzyl-7-fluoro-2,3,4,5-tetrahydro-1H-benzo[c]azepin-8-ylmethyl)-amide], the figure is not above 10 nM; as for `Cn1cnc(S(=O)(=O)NCc2ccc3c(c2)C(Cc2ccc(Cl)cc2)NCCC3)c1` (stereo not shown) [Example 18, 1-Methyl-1H-imidazole-4-sulfonic acid [1-(4-chloro-benzyl)-2,3,4,5-tetrahydro-1H-benzo-[c]azepin-8-ylmethyl]-amide], not above 1000 nM; as for `CCS(=O)(=O)NCCOc1ccc2c(c1)C(Cc1ccc(Cl)cc1)NCCC2` (stereo not shown) [Example 9, Ethanesulfonic acid {2-[1-(4-chlorobenzyl)-2,3,4,5-tetrahydro-1H-benzo[c]azepin-8-yloxy]-ethyl}-amide], not above 10000 nM.
As for `CN(Cc1ccc2c(c1)C(Cc1ccccc1)NCCC2)S(=O)(=O)c1cn(C)cn1` (stereo not shown) [Example 36, 1-Methyl-1H-imidazole-4-sulfonic acid (1-benzyl-2,3,4,5-tetrahydro-1H-benzo[c]azepin-8-ylmethyl)-methyl-amide], the figure is not above 100 nM.
Next, `Cn1cc(S(=O)(=O)NCCOc2ccc3c(c2)C(Cc2ccccc2)NCCC3)cn1` (stereo not shown) [Example 3, N-(2-(1-Benzyl-2,3,4,5-tetrahydro-1H-benzo[c]azepin-8-yloxy)ethyl)-1-methyl-1H-pyrazole-4-sulfonamide]: not above 10 nM; `CCCS(=O)(=O)NCc1ccc2c(c1)C(Cc1cccc(F)c1)NCCC2` (stereo not shown) [Example 27, Propane-1-sulfonic acid [1-(3-fluoro-benzyl)-2,3,4,5-tetrahydro-1H-benzo[c]azepin-8-ylmethyl]-amide]: not above 1000 nM; `Cn1cc(S(=O)(=O)NCc2ccc3c(c2)C(Cc2cccc(F)c2)NCCC3)cn1` (stereo not shown) [Example 26, 1-Methyl-1H-pyrazole-4-sulfonic acid [1-(3-fluoro-benzyl)-2,3,4,5-tetrahydro-1H-benzo[c]azepin-8-ylmethyl]-amide]: not above 10 nM.
Regarding `O=S(=O)(CC1CC1)NCc1ccc2c(c1)C(Cc1ccccc1)NCCC2` (stereo not shown) [Example 30, N-(1-Benzyl-2,3,4,5-tetrahydro-1H-benzo[c]azepin-8-ylmethyl)-C-cyclopropyl-methane-sulfonamide], the Ki is not above 100 nM.
In the case of `CCS(=O)(=O)NCCOc1ccc2c(c1)C(Cc1ccccc1)NCCC2` (stereo not shown) [Example 11, Ethanesulfonic acid [2-(1-benzyl-2,3,4,5-tetrahydro-1H-benzo[c]azepin-8-yloxy)-ethyl]-amide], the Ki was not above 1000 nM.
Next, `CCS(=O)(=O)NCCOc1ccc2c(c1)C(Cc1cccc(F)c1)NCCC2` (stereo not shown) [Example 25, Ethanesulfonic acid {2-[1-(3-fluoro-benzyl)-2,3,4,5-tetrahydro-1H-benzo[c]azepin-8-yloxy]-ethyl}-amide]: not above 1000 nM.
As for `Cn1cnc(S(=O)(=O)NCc2ccc3c(c2)C(Cc2cccc(F)c2)NCCC3)c1` (stereo not shown) [Example 22, 1-Methyl-1H-imidazole-4-sulfonic acid [1-(3-fluoro-benzyl)-2,3,4,5-tetrahydro-1H-benzo[c]azepin-8-ylmethyl]-amide], the figure is not above 10 nM; as for `O=S(=O)(NCc1ccc2c(c1)C(Cc1ccc(Cl)cc1)NCCC2)C1CCC1` (stereo not shown) [Example 17, Cyclobutanesulfonic acid [1-(4-chloro-benzyl)-2,3,4,5-tetra-hydro-1H-benzo[c]azepin-8-ylmethyl]-amide], not above 1000 nM.
In the case of `O=S(=O)(CC1CC1)NCCOc1ccc2c(c1)C(Cc1ccccc1)NCCC2` (stereo not shown) [Example 13, N-{2-[1-Benzyl-2,3,4,5-tetrahydro-1H-benzo[c]azepin-8-yloxy]-ethyl}-C-cyclopropyl-methanesulfonamide], the Ki is not above 100 nM.
As to `CCS(=O)(=O)NCc1ccc2c(c1)C(Cc1ccccc1)NCCC2` (stereo not shown) [Example 33, Ethanesulfonic acid (1-benzyl-2,3,4,5-tetrahydro-1H-benzo[c]-azepin-8-ylmethyl)-amide], the Ki is not above 10000 nM.
Next, `CCCS(=O)(=O)NCCOc1ccc2c(c1)C(Cc1ccc(Cl)cc1)NCCC2` (stereo not shown) [Example 8, Propane-1-sulfonic acid {2-[1-(4-chlorobenzyl)-2,3,4,5-tetrahydro-1H-benzo[c]azepin-8-yloxy]-ethyl}-amide]: not above 1000 nM.
As for `COc1ccc2c(c1)C(Cc1ccccc1)NCCC2` (stereo not shown) [Example 1, 1-Benzyl-8-methoxy-2,3,4,5-tetrahydro-1H-benzo[c]azepine], the Ki was more than 10000 nM.
As for `Cn1cc(S(=O)(=O)NCc2ccc3c(c2)C(Cc2ccc(Cl)cc2)NCCC3)cn1` (stereo not shown) [Example 19, 1-Methyl-1H-pyrazole-4-sulfonic acid [1-(4-chloro-benzyl)-2,3,4,5-tetrahydro-1H-benzo-[c]azepin-8-ylmethyl]-amide], the figure is not above 100 nM; as for `CCCS(=O)(=O)NCCOc1ccc2c(c1)C(Cc1cccc(F)c1)NCCC2` (stereo not shown) [Example 23, Propane-1-sulfonic acid {2-[1-(3-fluoro-benzyl)-2,3,4,5-tetrahydro-1H-benzo[c]azepin-8-yloxy]-ethyl}-amide], not above 100 nM.
Next, `CCCS(=O)(=O)NCCOc1ccc2c(c1)C(Cc1ccccc1)NCCC2` (stereo not shown) [Example 10, Propane-1-sulfonic acid [2-(1-benzyl-2,3,4,5-tetrahydro-1H-benzo[c]azepin-8-yloxy)-ethyl]-amide]: not above 100 nM; `CCCS(=O)(=O)NCc1ccc2c(c1)C(Cc1ccc(Cl)cc1)NCCC2` (stereo not shown) [Example 14, Propane-1-sulfonic acid [1-(4-chloro-benzyl)-2,3,4,5-tetra-hydro-1H-benzo[c]azepin-8-ylmethyl]-amide]: not above 1000 nM.
Next, `O=S(=O)(CC1CC1)NCCOc1ccc2c(c1)C(Cc1ccc(Cl)cc1)NCCC2` (stereo not shown) [Example 12, N-{2-[1-(4-Chlorobenzyl)-2,3,4,5-tetrahydro-1H-benzo[c]azepin-8-yloxy]-ethyl}-C-cyclopropyl-methanesulfonamide]: not above 1000 nM; `CCCS(=O)(=O)NCc1ccc2c(c1)C(Cc1ccccc1)NCCC2` (stereo not shown) [Example 32, Propane-1-sulfonic acid (1-benzyl-2,3,4,5-tetrahydro-1H-benzo[c]-azepin-8-ylmethyl)-amide]: not above 1000 nM.
Consider `COc1ccc2c(c1)C(C1(c3ccc(Cl)cc3)CCC1)NCCO2` (stereo not shown) [Example 5, 5-(1-(4-Chlorophenyl)cyclobutyl)-7-methoxy-2,3,4,5-tetrahydrobenzo[f][1,4]oxazepine hydrochloride], for which the Ki was not above 10000 nM.
Turning to `Cn1cnc(S(=O)(=O)NCCOc2ccc3c(c2)C(Cc2ccccc2)NCCC3)c1` (stereo not shown) [Example 2, N-(2-(1-Benzyl-2,3,4,5-tetrahydro-1H-benzo[c]azepin-8-yloxy)ethyl)-1-methyl-1H-imidazole-4-sulfonamide], the Ki is not above 100 nM.
For the molecule `Cn1cnc(S(=O)(=O)NCc2ccc3c(c2)C(Cc2ccccc2)NCCC3)c1` (stereo not shown) [Example 35, 1-Methyl-1H-imidazole-4-sulfonic acid (1-benzyl-2,3,4,5-tetra-hydro-1H-benzo[c]azepin-8-ylmethyl)-amide], the Ki is not above 10 nM.
Next, `Cn1cc(S(=O)(=O)NCCOc2ccc3c(c2)C(Cc2cccc(F)c2)NCCC3)cn1` (stereo not shown) [Example 21, 1-Methyl-1H-pyrazole-4-sulfonic acid {2-[1-(3-fluoro-benzyl)-2,3,4,5-tetrahydro-1H-benzo[c]azepin-8-yloxy]-ethyl}-amide]: not above 10 nM; `O=S(=O)(CC1CC1)NCCOc1ccc2c(c1)C(Cc1ccccc1)NCCC2` (stereo not shown) [Example 4, N-(2-(1-benzyl-2,3,4,5-tetrahydro-1H-benzo[c]azepin-8-yloxy)ethyl)-1-cyclopropylmethanesulfonamide]: not above 100 nM; `CCN(Cc1ccc2c(c1)C(Cc1ccccc1)NCCC2)S(=O)(=O)c1cn(C)cn1` (stereo not shown) [Example 40, 1-Methyl-1H-imidazole-4-sulfonic acid (1-benzyl-2,3,4,5-tetrahydro-1H-benzo[c]azepin-8-ylmethyl)-ethyl-amide]: not above 100 nM.
As for `CCS(=O)(=O)NCc1ccc2c(c1)C(Cc1cccc(F)c1)NCCC2` (stereo not shown) [Example 29, Ethanesulfonic acid [1-(3-fluoro-benzyl)-2,3,4,5-tetrahydro-1H-benzo[c]azepin-8-ylmethyl]-amide], the figure is not above 1000 nM.

(Values after patent publication US9309200B2, “Benzazepine derivatives, pharmaceutical compositions containing them, and their use in therapy” (AbbVie Deutschland GmbH & Co. KG, priority 2011, dated 2016).)
